Results reported in article PMC4685510, “A Cell Biologist’s Field Guide to Aurora Kinase Inhibitors” (Frontiers in Oncology, 2015).
Entries after “also recorded” stand apart in the source; their conditions may differ. Where two headings read alike, the source gives them in different places.

Assays:
[1] = target: 363 human kinases (including Aurora A/B/C) (Homo sapiens, UniProt Q15759); assay: biochemical; format: biochemical; settings: P38b/MAPK11; for remaining activity at 0.1 µM: 100 nM; for remaining activity at 0.1 µM / remaining activity at 0.5 µM: read-out: % Enzyme Activity (relative to DMSO controls)
Source text: (§1) However, the Aurora A/B selectivity ratios derived from our in vitro and in vivo data can be compared to prioritize inhibitors.

[2] = target: 363 human kinases (including Aurora A/B/C) (Homo sapiens, UniProt Q86V86); assay: biochemical; format: biochemical; settings: PIM3; for remaining activity at 0.1 µM: 100 nM; for remaining activity at 0.1 µM / remaining activity at 0.5 µM: read-out: % Enzyme Activity (relative to DMSO controls)
Source text: as §1

[3] = target: 363 human kinases (including Aurora A/B/C) (Homo sapiens, UniProt Q9BUB5); assay: biochemical; format: biochemical; settings: MNK1; for remaining activity at 0.1 µM: 100 nM; for remaining activity at 0.1 µM / remaining activity at 0.5 µM: read-out: % Enzyme Activity (relative to DMSO controls)
Source text: as §1

[4] = tested on: pLATS2(Ser 83) in HeLa cells; assay: Substrate phosphorylation immunofluorescence assay, pLATS2(Ser 83), HeLa; format: cell-based, human
Protocol: We employed the protocol described in Figure 3D to analyze substrate phosphorylation in HeLa cells following treatment with all 10 inhibitors in dose–response. Asynchronous cells were incubated with vehicle (DMSO) or different inhibitor doses for 8 h and then fixed and labeled with a mixture of three antibodies directed against pLATS2(Ser 83), pH3(Ser 28), and MPM2 [which detects mitotic phosphoepitopes; ([86])]. While both the anti-pLATS2(Ser 83) and MPM2 antibodies are mouse monoclonals, they are of different IgG subclasses [IgG2b for anti-pLATS2(Ser 83) and IgG1 for MPM2], and can thus be detected with subclass-specific secondary antibodies (Table S3 in Supplementary Material).
In control mitotic cells, pLATS2(Ser 83) is concentrated in foci around the spindle poles (Figure 3E; top row – green arrow) and pH3(Ser 28) is on the mitotic chromatin (Figure 3E; top row – red arrow). Selective kinase inhibition should result in loss of one signal but not the other, as illustrated by the example images for specific conditions in Figure 3E (middle and bottom rows). Cells were imaged in 4 channels to visualize pLATS2(Ser 83), pH3(Ser 28), MPM2, and DNA (labeled with Hoechst) and mitotic cells were segmented based on their bright MPM2 labeling (Figure 3E). Intensity and area thresholds were set to select the pLATS2(Ser 83) foci and the pH3(Ser 28)-labeled chromatin in their respective channels in DMSO-treated control cells and the same thresholds were applied for inhibitor-treated cells. The mean fluorescence intensity per pixel was measured to assess the activities of the kinases targeting these two substrate phosphorylation sites.
Twelve thousand HeLa cells, 10,000 U2OS cells, or 8,000 RPE1 cells were seeded into 96-well glass-bottom Sensoplates (Greiner) 16 h before inhibitor addition. Prior to seeding, the glass-bottom plates were coated with poly-L-lysine (Sigma). […] After 8 h cells were fixed with 4% PFA for 20 min at room temperature. The fixed cells were washed with PBS. For immunostaining, cells were permeabilized and blocked with PBS containing 10% normal donkey serum (Jackson ImmunoResearch) and 0.1% Triton-X100 for 1 h at room temperature. Primary antibodies against phospho-LATS2 (Ser 83), phospho-histone H3(Ser 28), and anti-phospho-MPM2 (see Table S3 in Supplementary Material) were incubated for 1 h at room temperature. […] Cells were then washed twice with PBS containing 0.1% Triton-X100. Image acquisition in four channels was performed using a CV7000 spinning disk confocal system (Yokogawa Electric Corporation) with a 40 × 0.95 NA U-PlanApo objective and 2560 × 2160 pixel sCMOS camera. […] Fifty fields per well were imaged with quadruplicate wells for each condition. Image analysis was done using the CV7000 image analysis software (Yokogawa Electric Corporation). Between 100 and 1,000 mitotic cells per condition were segmented applying object identification parameters to select for bright MPM2 labeling. Using a nuclear identifier protocol, minimum intensity thresholds were set for pLATS2(Ser 83) and the pH3(Ser 28) signals, and the resulting identified objects were eroded, dilated, and filtered for size by user-defined thresholds. For only the MPM2-positive mitotic cells, the mean fluorescence intensity of the identified pLATS2(Ser 83) and pH3(Ser 28) objects was measured, and the average intensity per cell per well was calculated. The same thresholds were applied for all of the inhibitor-treated samples, which were processed, imaged, and analyzed in parallel with control DMSO-treated cells. Data were fit using a four-parameter, variable slope fit in Prism (GraphPad). Primary and secondary antibody dilutions can be found in Table S3 in Supplementary Material.

[5] = tested on: pH3(Ser 28) in RPE1 cells; assay: Substrate phosphorylation immunofluorescence assay, pH3(Ser 28), RPE1; format: cell-based, human
Protocol: After 8 h cells were fixed with 4% PFA for 20 min at room temperature. The fixed cells were washed with PBS. For immunostaining, cells were permeabilized and blocked with PBS containing 10% normal donkey serum (Jackson ImmunoResearch) and 0.1% Triton-X100 for 1 h at room temperature. Primary antibodies against phospho-LATS2 (Ser 83), phospho-histone H3(Ser 28), and anti-phospho-MPM2 (see Table S3 in Supplementary Material) were incubated for 1 h at room temperature. […] Cells were then washed twice with PBS containing 0.1% Triton-X100. […] Fifty fields per well were imaged with quadruplicate wells for each condition. Image analysis was done using the CV7000 image analysis software (Yokogawa Electric Corporation). Between 100 and 1,000 mitotic cells per condition were segmented applying object identification parameters to select for bright MPM2 labeling. Using a nuclear identifier protocol, minimum intensity thresholds were set for pLATS2(Ser 83) and the pH3(Ser 28) signals, and the resulting identified objects were eroded, dilated, and filtered for size by user-defined thresholds. […] The same thresholds were applied for all of the inhibitor-treated samples, which were processed, imaged, and analyzed in parallel with control DMSO-treated cells. Data were fit using a four-parameter, variable slope fit in Prism (GraphPad).

[6] = tested on: pAuroraA(Thr 288) in HeLa cells; assay: Immunoblotting of Aurora A activation loop phosphorylation; format: cell-based, human; settings: for Effect on pAuroraA(Thr 288): dose–response; for IC50: Homo sapiens, read-out: IC50 pAuroraA(Thr 288)
[7] = tested on: pAuroraB(Thr 232), pH3(Ser 10), pH3(Ser 28) in HeLa cells; assay: Immunoblotting of pAuroraB(Thr 232), pH3(Ser 28) and pH3(Ser 10); format: cell-based, human; settings: immunoblot; for Effect on pH3(Ser 10), pH3(Ser 28), pAuroraB(Thr 232): dose–response
[8] = target: Aurora B; settings: cited from earlier work; for IC50: read-out: Aurora B IC50 (Published)
[9] = tested on: HeLa cells; assay: G2 duration live imaging assay (GFP-PCNA; H2B-RFP), HeLa; format: cell-based, human
[10] = tested on: RPE1 cells; assay: G2 duration live imaging assay (GFP-PCNA; H2B-RFP), RPE1; format: cell-based; settings: Homo sapiens, RPE-1, read-out: G2/M (G2 duration) IC50
[11] = tested on: U2OS cells; assay: G2 duration live imaging assay (GFP-PCNA; H2B-RFP), U2OS; format: cell-based; settings: Homo sapiens, read-out: G2/M (G2 duration) IC50
[12] = Homo sapiens, read-out: G2/M (G2 duration) IC50, HeLa
[13] = read-out: G2/M (G2 duration) IC50

Sequence of 363 human kinases (including Aurora A/B/C) (Homo sapiens, UniProt Q9BUB5) (Q9BUB5 whole entry): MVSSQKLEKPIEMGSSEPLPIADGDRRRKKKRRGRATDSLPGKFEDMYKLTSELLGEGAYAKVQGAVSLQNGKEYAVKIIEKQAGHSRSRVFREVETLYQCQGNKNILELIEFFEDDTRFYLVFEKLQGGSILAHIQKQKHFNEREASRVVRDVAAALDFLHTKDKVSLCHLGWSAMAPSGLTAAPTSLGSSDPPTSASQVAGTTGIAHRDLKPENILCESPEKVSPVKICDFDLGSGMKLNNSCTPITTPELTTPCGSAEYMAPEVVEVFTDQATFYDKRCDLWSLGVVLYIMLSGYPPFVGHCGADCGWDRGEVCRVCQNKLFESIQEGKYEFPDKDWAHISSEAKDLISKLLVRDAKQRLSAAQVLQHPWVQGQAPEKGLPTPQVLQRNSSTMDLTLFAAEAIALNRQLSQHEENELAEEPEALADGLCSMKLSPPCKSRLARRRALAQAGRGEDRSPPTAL
Sequence of 363 human kinases (including Aurora A/B/C) (Homo sapiens, UniProt Q15759) (Q15759 whole entry): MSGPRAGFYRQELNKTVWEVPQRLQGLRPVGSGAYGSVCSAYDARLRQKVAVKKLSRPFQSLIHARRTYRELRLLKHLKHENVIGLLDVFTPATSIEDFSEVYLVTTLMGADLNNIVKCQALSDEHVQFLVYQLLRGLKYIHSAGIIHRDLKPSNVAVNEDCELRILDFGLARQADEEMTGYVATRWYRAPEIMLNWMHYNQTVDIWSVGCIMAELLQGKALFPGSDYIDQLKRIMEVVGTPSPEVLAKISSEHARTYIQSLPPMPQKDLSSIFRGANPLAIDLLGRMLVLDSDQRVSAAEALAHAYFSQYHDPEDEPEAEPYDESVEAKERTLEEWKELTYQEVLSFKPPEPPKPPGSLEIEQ

SMILES | remaining activity at 0.1 µM [1] | remaining activity at 0.1 µM [2] | remaining activity at 0.1 µM [3] | Effect on pAuroraA(Thr 288) ([6]; immunoblot) | Effect on pH3(Ser 10), pH3(Ser 28), pAuroraB(Thr 232) [7] | remaining activity at 0.5 µM ([1]; 500 nM) | remaining activity at 0.5 µM ([2]; 500 nM) | remaining activity at 0.5 µM ([3]; 500 nM) | IC50 [9, 12] | IC50 [9, 13] | IC50 [10] | IC50 [11] | further results
CCn1cc(-c2ccnc3[nH]c(-c4cccc(CN(C)C)c4)cc23)c(-c2ccc(NC(=O)N(C)C)cc2)n1 [GSK1070916] | 94.3% | 106% | 113% | did not affect | eliminated | – | – | – | – | – | – | – | pLATS2 (Ser83) IC50 ([4]; HeLa, 8 h inhibitor treatment): NE (100 nM); also recorded: NE@100 nM; IC50 ([5]; Homo sapiens, RPE-1, 8 h, read-out: pHistone H3 (Ser28) IC50): 15 nM; Effect on Aurora A activity (pAuroraA Thr 288) ([6]; immunoblot, 300 nM (Figure S6)): inhibited Aurora A activity; Concentration eliminating Aurora B activity without affecting pAuroraA (Thr 288) [7]: < 100 nM; Ki ([8]; ref 61, read-out: Aurora B-INCENP Ki (Published)): 0.38 nM
O=C(O)[C@]1(Cc2cccc(Nc3nccs3)n2)CC[C@@H](Oc2cccc(Cl)c2F)CC1 [MK-5108] | 102% | 93.8% | 105% | completely eliminate Thr 288 phosphorylation | no effect | 96% | 62.2% | 116% | 600 to 800 nM | 816 nM | 877 nM | 995 nM | IC50 ([4]; Homo sapiens, HeLa, 8 h, read-out: pLATS2 (Ser83) IC50, HeLa, 8 h inhibitor treatment): 600 to 800 nM; IC50 ([4]; read-out: pLATS2 (Ser83) IC50, HeLa, 8 h inhibitor treatment): 610 nM; inhibition at 15 µM ([5]; Homo sapiens, RPE-1, read-out: pHistone H3 (Ser28) inhibition at highest concentration tested): 80%; IC50 [6]: < 100 nM; IC50 ([8]; ref 56): 14.1 nM
O=C(c1cccc(Cl)c1F)N1CCN(Cc2cccc(Nc3nccs3)n2)CC1 [MK-8745] | – | – | – | completely eliminate Thr 288 phosphorylation | no effect | 93.2% | 96% | 107% | 600 to 800 nM | 596 nM | 755 nM | 437 nM | % Enzyme Activity (relative to DMSO controls) ([1]; 500 nM): 92.96%; % Enzyme Activity (relative to DMSO controls) ([2]; 500 nM): 94.49%; % Enzyme Activity (relative to DMSO controls) ([3]; 500 nM): 107.37%; IC50 ([4]; HeLa, 8 h inhibitor treatment, read-out: pLATS2 (Ser83) IC50): 610 nM; IC50 ([4]; Homo sapiens, HeLa, 8 h, HeLa, 8 h inhibitor treatment, read-out: pLATS2 (Ser83) IC50): 600 to 800 nM; Lowest concentration to maximally inhibit Aurora A in cells relative to lowest AZD1152-HQPA concentration to fully inhibit Aurora B ([4]; cellular assays): > 100 fold; pHistone H3 (Ser28) IC50 ([5]; RPE1, 8 h inhibitor treatment): NE@15 µM; IC50 ([6]; immunoblot, taxol-arrested mitotic lysates): < 100 nM; IC50 ([8]; ref 57): 280 nM
